Tests used:
Assay in all cases: relative viability (nuclei count vs DMSO), 5 days (fraction); higher = more cells survive
NCI-H647 = tested on: NCI-H647
Procedure, shortened: (§1)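 Lung cancer cell lines were pin-tool dosed in 1536-well plates on the day after seeding, with either a lone drug or a fixed anchor-drug dose plus five library-drug doses (not always all listed) in √10 steps. Nuclei were counted on 4× images after 5 days. Relative viability is the ratio of treated-well to vehicle-well nuclei counts, with each value a median of duplicate plates.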

H3255 = tested on: H3255
Procedure, shortened: as §1

COR-L23 = tested on: COR-L23
Procedure, shortened: as §1

LOU-NH91 = tested on: LOU-NH91
Procedure, shortened: as §1

HCC-15 = tested on: HCC-15
Procedure, shortened: as §1

NCI-H2347 = tested on: NCI-H2347
Procedure, shortened: as §1

UMC-11 = tested on: UMC-11
Procedure, shortened: as §1

NCI-H1563 = tested on: NCI-H1563
Procedure, shortened: as §1

PC-14 = tested on: PC-14
Procedure, shortened: as §1

NCI-H1734 = tested on: NCI-H1734
Procedure, shortened: as §1

NCI-H2405 = tested on: NCI-H2405
Procedure, shortened: as §1

NCI-H520 = tested on: NCI-H520
Procedure, shortened: as §1

NCI-H2023 = tested on: NCI-H2023
Procedure, shortened: as §1

NCI-H1650 = tested on: NCI-H1650
Procedure, shortened: as §1

NCI-H322M = tested on: NCI-H322M
Procedure, shortened: as §1

NCI-H441 = tested on: NCI-H441
Procedure, shortened: as §1

NCI-H3122 = tested on: NCI-H3122
Procedure, shortened: as §1

EPLC-272H = tested on: EPLC-272H
Procedure, shortened: as §1

201T = tested on: 201T
Procedure, shortened: as §1

NCI-H1793 = tested on: NCI-H1793
Procedure, shortened: as §1

NCI-H2170 = tested on: NCI-H2170
Procedure, shortened: as §1

COc1nc(C)cnc1NS(=O)(=O)c1cccnc1-c1ccc(-c2nnco2)cc1 [Zibotentan] + CC(C)C[C@H](NC(=O)[C@H](Cc1ccccc1)NC(=O)c1cnccn1)B(O)O [Bortezomib] (partner 0.002 µM)
relative viability (NCI-H647; first compound 0.08 µM): 0.859 | relative viability (NCI-H647; first compound 0.253 µM): 0.818 | relative viability (NCI-H647; first compound 0.8 µM): 0.891 | relative viability (NCI-H647; first compound 2.53 µM): 1.11 | relative viability (H3255; first compound 0.08 µM): 0.791 | relative viability (H3255; first compound 0.253 µM): 0.963 | relative viability (H3255; first compound 0.8 µM): 0.996 | relative viability (H3255; first compound 2.53 µM): 0.822 | relative viability (COR-L23; first compound 0.08 µM): 0.999 | relative viability (COR-L23; first compound 0.253 µM): 0.917 | relative viability (COR-L23; first compound 0.8 µM): 0.98 | relative viability (COR-L23; first compound 2.53 µM): 1.07 | relative viability (LOU-NH91; first compound 0.08 µM): 0.469 | relative viability (LOU-NH91; first compound 0.253 µM): 0.443 | relative viability (LOU-NH91; first compound 0.8 µM): 0.538 | relative viability (LOU-NH91; first compound 2.53 µM): 0.815 | relative viability (HCC-15; first compound 0.08 µM): 0.99 | relative viability (HCC-15; first compound 0.253 µM): 1.01 | relative viability (HCC-15; first compound 0.8 µM): 0.979 | relative viability (HCC-15; first compound 2.53 µM): 1.09 | relative viability (NCI-H2347; first compound 0.08 µM): 1.08 | relative viability (NCI-H2347; first compound 0.253 µM): 0.871 | relative viability (NCI-H2347; first compound 0.8 µM): 1.04 | relative viability (NCI-H2347; first compound 2.53 µM): 0.734 | relative viability (UMC-11; first compound 0.08 µM): 0.601 | relative viability (UMC-11; first compound 0.253 µM): 0.623 | relative viability (UMC-11; first compound 0.8 µM): 0.668 | relative viability (UMC-11; first compound 2.53 µM): 0.909 | relative viability (NCI-H1563; first compound 0.08 µM): 0.932 | relative viability (NCI-H1563; first compound 0.253 µM): 0.648 | relative viability (NCI-H1563; first compound 0.8 µM): 0.881 | relative viability (NCI-H1563; first compound 2.53 µM): 0.905 | relative viability (PC-14; first compound 0.08 µM): 0.872 | relative viability (PC-14; first compound 0.253 µM): 0.922 | relative viability (PC-14; first compound 0.8 µM): 0.897 | relative viability (PC-14; first compound 2.53 µM): 0.861 | relative viability (NCI-H1734; first compound 0.08 µM): 1.1 | relative viability (NCI-H1734; first compound 0.253 µM): 0.894 | relative viability (NCI-H1734; first compound 0.8 µM): 0.972 | relative viability (NCI-H1734; first compound 2.53 µM): 1 | relative viability (NCI-H2405; first compound 0.08 µM): 1.02 | relative viability (NCI-H2405; first compound 0.253 µM): 1.05 | relative viability (NCI-H2405; first compound 0.8 µM): 0.991 | relative viability (NCI-H2405; first compound 2.53 µM): 0.963 | relative viability (NCI-H520; first compound 0.08 µM): 0.541 | relative viability (NCI-H520; first compound 0.253 µM): 0.532 | relative viability (NCI-H520; first compound 0.8 µM): 0.575 | relative viability (NCI-H520; first compound 2.53 µM): 0.821 | relative viability (NCI-H2023; first compound 0.08 µM): 1.04 | relative viability (NCI-H2023; first compound 0.253 µM): 0.87 | relative viability (NCI-H2023; first compound 0.8 µM): 0.909 | relative viability (NCI-H2023; first compound 2.53 µM): 0.966 | relative viability (NCI-H1650; first compound 0.08 µM): 0.209 | relative viability (NCI-H1650; first compound 0.8 µM): 0.198 | relative viability (NCI-H1650; first compound 2.53 µM): 0.194 | relative viability (NCI-H322M; first compound 0.08 µM): 1.05 | relative viability (NCI-H322M; first compound 0.253 µM): 1.22 | relative viability (NCI-H322M; first compound 0.8 µM): 1.18 | relative viability (NCI-H322M; first compound 2.53 µM): 1.34 | relative viability (NCI-H441; first compound 0.08 µM): 0.846 | relative viability (NCI-H441; first compound 0.8 µM): 0.463 | relative viability (NCI-H441; first compound 2.53 µM): 0.539 | relative viability (NCI-H3122; first compound 0.08 µM): 1.02 | relative viability (NCI-H3122; first compound 0.253 µM): 0.979 | relative viability (NCI-H3122; first compound 0.8 µM): 0.992 | relative viability (NCI-H3122; first compound 2.53 µM): 1.03 | relative viability (EPLC-272H; first compound 0.08 µM): 1.04 | relative viability (EPLC-272H; first compound 0.253 µM): 0.906 | relative viability (EPLC-272H; first compound 0.8 µM): 0.843 | relative viability (EPLC-272H; first compound 2.53 µM): 0.862 | relative viability (201T; first compound 0.08 µM): 1.1 | relative viability (201T; first compound 0.253 µM): 1.05 | relative viability (201T; first compound 0.8 µM): 1.11 | relative viability (201T; first compound 2.53 µM): 1.11

COc1nc(C)cnc1NS(=O)(=O)c1cccnc1-c1ccc(-c2nnco2)cc1 [Zibotentan] + Cc1nc(NC(=O)N2CCC[C@H]2C(N)=O)sc1-c1ccnc(C(C)(C)C(F)(F)F)c1 [Alpelisib] (partner 2 µM)
relative viability (NCI-H647; first compound 0.08 µM): 1.29 | relative viability (NCI-H647; first compound 0.253 µM): 0.92 | relative viability (NCI-H647; first compound 0.8 µM): 1.28 | relative viability (NCI-H647; first compound 2.53 µM): 1.24 | relative viability (H3255; first compound 0.08 µM): 0.712 | relative viability (H3255; first compound 0.253 µM): 0.698 | relative viability (H3255; first compound 0.8 µM): 0.672 | relative viability (H3255; first compound 2.53 µM): 0.727 | relative viability (COR-L23; first compound 0.08 µM): 0.847 | relative viability (COR-L23; first compound 0.253 µM): 0.655 | relative viability (COR-L23; first compound 0.8 µM): 0.831 | relative viability (COR-L23; first compound 2.53 µM): 0.824 | relative viability (LOU-NH91; first compound 0.08 µM): 0.749 | relative viability (LOU-NH91; first compound 0.253 µM): 0.696 | relative viability (LOU-NH91; first compound 0.8 µM): 0.785 | relative viability (LOU-NH91; first compound 2.53 µM): 0.702 | relative viability (HCC-15; first compound 0.08 µM): 0.954 | relative viability (HCC-15; first compound 0.253 µM): 0.884 | relative viability (HCC-15; first compound 0.8 µM): 0.869 | relative viability (HCC-15; first compound 2.53 µM): 0.844 | relative viability (NCI-H2347; first compound 0.08 µM): 1.15 | relative viability (NCI-H2347; first compound 0.253 µM): 1.04 | relative viability (NCI-H2347; first compound 0.8 µM): 1.09 | relative viability (NCI-H2347; first compound 2.53 µM): 1.08 | relative viability (UMC-11; first compound 0.08 µM): 0.861 | relative viability (UMC-11; first compound 0.253 µM): 0.961 | relative viability (UMC-11; first compound 0.8 µM): 0.925 | relative viability (UMC-11; first compound 2.53 µM): 0.971 | relative viability (NCI-H1793; first compound 0.08 µM): 0.821 | relative viability (NCI-H1793; first compound 0.253 µM): 0.53 | relative viability (NCI-H1793; first compound 0.8 µM): 0.852 | relative viability (NCI-H1793; first compound 2.53 µM): 0.713 | relative viability (NCI-H1563; first compound 0.08 µM): 0.978 | relative viability (NCI-H1563; first compound 0.253 µM): 0.666 | relative viability (NCI-H1563; first compound 0.8 µM): 1.01 | relative viability (NCI-H1563; first compound 2.53 µM): 1.02 | relative viability (PC-14; first compound 0.08 µM): 0.98 | relative viability (PC-14; first compound 0.253 µM): 0.872 | relative viability (PC-14; first compound 0.8 µM): 1.06 | relative viability (PC-14; first compound 2.53 µM): 0.944 | relative viability (NCI-H1734; first compound 0.08 µM): 0.794 | relative viability (NCI-H1734; first compound 0.253 µM): 0.726 | relative viability (NCI-H1734; first compound 0.8 µM): 0.681 | relative viability (NCI-H1734; first compound 2.53 µM): 0.686 | relative viability (NCI-H2405; first compound 0.08 µM): 0.787 | relative viability (NCI-H2405; first compound 0.253 µM): 0.65 | relative viability (NCI-H2405; first compound 0.8 µM): 0.745 | relative viability (NCI-H2405; first compound 2.53 µM): 0.948 | relative viability (NCI-H2170; first compound 0.08 µM): 0.802 | relative viability (NCI-H2170; first compound 0.253 µM): 0.791 | relative viability (NCI-H2170; first compound 0.8 µM): 0.889 | relative viability (NCI-H2170; first compound 2.53 µM): 0.835 | relative viability (NCI-H520; first compound 0.08 µM): 0.928 | relative viability (NCI-H520; first compound 0.253 µM): 0.848 | relative viability (NCI-H520; first compound 0.8 µM): 0.768 | relative viability (NCI-H520; first compound 2.53 µM): 0.972 | relative viability (NCI-H2023; first compound 0.08 µM): 0.632 | relative viability (NCI-H2023; first compound 0.253 µM): 0.485 | relative viability (NCI-H2023; first compound 0.8 µM): 0.658 | relative viability (NCI-H2023; first compound 2.53 µM): 0.591 | relative viability (NCI-H322M; first compound 0.08 µM): 0.692 | relative viability (NCI-H322M; first compound 0.253 µM): 0.704 | relative viability (NCI-H322M; first compound 0.8 µM): 0.719 | relative viability (NCI-H322M; first compound 2.53 µM): 0.905 | relative viability (NCI-H441; first compound 0.08 µM): 0.757 | relative viability (NCI-H441; first compound 0.8 µM): 0.776 | relative viability (NCI-H441; first compound 2.53 µM): 0.779 | relative viability (NCI-H3122; first compound 0.08 µM): 0.801 | relative viability (NCI-H3122; first compound 0.253 µM): 0.773 | relative viability (NCI-H3122; first compound 0.8 µM): 0.76 | relative viability (NCI-H3122; first compound 2.53 µM): 0.822 | relative viability (EPLC-272H; first compound 0.08 µM): 0.805 | relative viability (EPLC-272H; first compound 0.253 µM): 0.908 | relative viability (EPLC-272H; first compound 0.8 µM): 0.979 | relative viability (EPLC-272H; first compound 2.53 µM): 0.943 | relative viability (201T; first compound 0.08 µM): 1.05 | relative viability (201T; first compound 0.253 µM): 0.993 | relative viability (201T; first compound 0.8 µM): 1.1 | relative viability (201T; first compound 2.53 µM): 1.11

Reference: the supplement of paper PMC10307832
